From EP1247803A2, “Indolinone compounds suitable for modulation of protein kinases” (Sugen, Inc., priority 1996, dated 1998)

What was measured:
FLK-1 receptor = target: T1, FLK-1 receptor (Mus musculus, UniProt P35918); assay: FLK-1 ELISA (kinase activity of the FLK-1 receptor in FLK-1/NIH3T3 cells, VEGF stimulated); format: cell-based; set-up: concentration or dose not given beside the values
T1 construct: expressed in transfected cells; host or cells: NIH3T3 C7#3
Method in brief: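 An ELISA using affinity-purified rabbit anti-FLK-1 antiserum on anti-rabbit IgG-coated plates measured VEGF-stimulated FLK-1 kinase activity. NIH3T3 C7#3 cells carrying FLK-1 were serum-starved (0.1% FBS) overnight, then exposed to compound (final 1:200 dilution, 0.5% DMSO) for two hours at 37 °C.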

PDGF-R = PDGF-R (Homo sapiens, UniProt P09619); assay: PDGF-R ELISA; format: cell-based
Text: A PDGF-R ELISA is described in International Patent Publication No. WO 96/40116, published December 19, 1996 by Tang et al.

Sequence of PDGF-R (P09619 33-1106, species assumed): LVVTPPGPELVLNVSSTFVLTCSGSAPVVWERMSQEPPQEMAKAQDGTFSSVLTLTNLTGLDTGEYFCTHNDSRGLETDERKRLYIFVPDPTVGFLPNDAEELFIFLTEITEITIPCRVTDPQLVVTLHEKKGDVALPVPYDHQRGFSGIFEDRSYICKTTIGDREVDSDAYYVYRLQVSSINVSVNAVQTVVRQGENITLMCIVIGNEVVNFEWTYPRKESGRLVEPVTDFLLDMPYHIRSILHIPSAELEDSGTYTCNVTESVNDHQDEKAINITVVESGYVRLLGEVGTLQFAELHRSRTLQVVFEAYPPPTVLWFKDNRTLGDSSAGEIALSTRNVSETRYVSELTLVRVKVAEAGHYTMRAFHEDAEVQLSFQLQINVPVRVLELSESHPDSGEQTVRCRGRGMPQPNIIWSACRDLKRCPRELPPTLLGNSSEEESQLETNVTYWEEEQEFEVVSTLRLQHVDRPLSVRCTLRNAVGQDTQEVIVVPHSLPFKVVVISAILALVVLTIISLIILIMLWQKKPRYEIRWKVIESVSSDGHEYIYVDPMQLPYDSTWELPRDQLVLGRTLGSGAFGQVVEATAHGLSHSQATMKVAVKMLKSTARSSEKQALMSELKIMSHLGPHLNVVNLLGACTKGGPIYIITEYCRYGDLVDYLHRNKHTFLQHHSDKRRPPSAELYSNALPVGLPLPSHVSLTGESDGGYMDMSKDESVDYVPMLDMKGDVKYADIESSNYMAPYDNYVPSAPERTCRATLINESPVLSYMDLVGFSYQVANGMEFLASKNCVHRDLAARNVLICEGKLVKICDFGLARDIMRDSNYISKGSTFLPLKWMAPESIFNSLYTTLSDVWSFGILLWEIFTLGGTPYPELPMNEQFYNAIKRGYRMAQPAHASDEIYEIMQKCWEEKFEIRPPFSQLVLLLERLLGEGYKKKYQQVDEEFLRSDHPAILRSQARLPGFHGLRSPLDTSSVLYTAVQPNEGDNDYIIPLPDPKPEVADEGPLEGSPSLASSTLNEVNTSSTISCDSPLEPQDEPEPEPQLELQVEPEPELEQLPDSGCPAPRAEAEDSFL
T1 sequence (P35918 20-1345): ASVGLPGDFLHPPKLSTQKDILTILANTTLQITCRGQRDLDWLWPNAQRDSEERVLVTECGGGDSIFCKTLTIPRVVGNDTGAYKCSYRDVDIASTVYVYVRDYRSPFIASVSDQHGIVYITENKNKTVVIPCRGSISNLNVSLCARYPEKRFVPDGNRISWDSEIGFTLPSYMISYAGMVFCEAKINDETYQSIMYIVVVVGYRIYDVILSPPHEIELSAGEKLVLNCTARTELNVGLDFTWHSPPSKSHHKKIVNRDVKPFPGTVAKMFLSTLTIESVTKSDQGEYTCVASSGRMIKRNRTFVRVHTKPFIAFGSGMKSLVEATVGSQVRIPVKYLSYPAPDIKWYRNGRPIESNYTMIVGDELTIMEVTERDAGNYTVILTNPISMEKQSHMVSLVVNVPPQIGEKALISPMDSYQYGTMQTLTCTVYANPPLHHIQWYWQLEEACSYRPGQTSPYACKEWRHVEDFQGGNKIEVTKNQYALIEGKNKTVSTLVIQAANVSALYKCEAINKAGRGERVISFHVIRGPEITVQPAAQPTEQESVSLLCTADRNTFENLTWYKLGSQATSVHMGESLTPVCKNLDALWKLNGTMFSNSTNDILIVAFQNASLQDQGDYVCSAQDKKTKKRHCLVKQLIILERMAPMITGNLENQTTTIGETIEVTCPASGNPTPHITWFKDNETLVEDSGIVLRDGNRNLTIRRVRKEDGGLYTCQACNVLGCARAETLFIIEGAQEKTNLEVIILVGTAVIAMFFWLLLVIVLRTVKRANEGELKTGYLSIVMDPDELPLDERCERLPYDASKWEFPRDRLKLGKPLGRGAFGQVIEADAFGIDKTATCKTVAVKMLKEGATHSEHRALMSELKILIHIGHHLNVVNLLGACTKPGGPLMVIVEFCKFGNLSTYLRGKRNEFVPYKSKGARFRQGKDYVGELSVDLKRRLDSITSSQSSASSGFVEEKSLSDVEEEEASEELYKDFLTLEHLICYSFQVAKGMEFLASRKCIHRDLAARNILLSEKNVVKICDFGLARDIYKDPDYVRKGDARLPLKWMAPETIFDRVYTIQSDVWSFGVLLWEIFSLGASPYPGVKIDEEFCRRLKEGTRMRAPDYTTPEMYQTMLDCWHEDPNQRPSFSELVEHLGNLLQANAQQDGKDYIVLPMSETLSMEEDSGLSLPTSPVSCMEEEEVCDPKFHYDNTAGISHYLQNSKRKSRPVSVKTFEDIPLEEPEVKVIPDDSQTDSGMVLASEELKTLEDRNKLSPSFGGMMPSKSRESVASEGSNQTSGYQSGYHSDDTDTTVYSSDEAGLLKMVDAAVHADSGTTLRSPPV

| SMILES | Fik Kinase %Inhibition (FLK-1 receptor) | PDGF Kinase %Inhibition (PDGF-R) |
| --- | --- | --- |
| COc1cc(OC)c(OC)cc1C=C1C(=O)Nc2ccc(S(=O)(=O)Nc3ccc(C(F)(F)F)cc3)cc21 [10730/E03] | 34.5% | 14.6% |
| COc1cc(C=C2C(=O)Nc3ccc(S(=O)(=O)Nc4ccc(C(F)(F)F)cc4)cc32)cc(OC)c1OC [10730/E04] | 22.1% | 18.6% |
| CC(=O)n1cc(C=C2C(=O)Nc3ccc(S(=O)(=O)Nc4ccc(C(F)(F)F)cc4)cc32)c2ccccc21 [10730/E05] | 8.7% | 28.7% |
| O=C1Nc2ccc(S(=O)(=O)Nc3ccc(C(F)(F)F)cc3)cc2C1=Cc1coc2ccc(Cl)cc2c1=O [10730/E06] | 11.1% | 26.0% |
| O=C1Nc2ccc(S(=O)(=O)Nc3ccc(C(F)(F)F)cc3)cc2C1=Cc1ccc(-c2ccccc2Cl)o1 [10730/E07] | 12.0% | 30.0% |
| O=C1Nc2ccc(S(=O)(=O)Nc3ccc(C(F)(F)F)cc3)cc2C1=Cc1cc2ccccc2nc1Cl [10730/E08] | 25.1% | 48.4% |
| O=C1Nc2ccc(S(=O)(=O)Nc3ccc(C(F)(F)F)cc3)cc2C1=Cc1coc2c(Br)cc(Br)cc2c1=O [10730/E09] | 21.8% | 20.3% |
| COC1CC(C=C2C(=O)Nc3ccc(S(=O)(=O)Nc4ccc(C(F)(F)F)cc4)cc32)C(OC)O1 (centres unmarked) [10730/E10] | 26.0% | 39.6% |
| Cc1cc(C=C2C(=O)Nc3ccc(S(=O)(=O)Nc4ccc(C(F)(F)F)cc4)cc32)oc1C [10730/E11] | 29.1% | 31.7% |
| COc1ccc(C=C2C(=O)Nc3ccc(S(=O)(=O)N4CCOCC4)cc32)c(OC)c1OC [10730/F02] | 18.4% | 20.3% |
| COc1cc(OC)c(OC)cc1C=C1C(=O)Nc2ccc(S(=O)(=O)N3CCOCC3)cc21 [10730/F03] | 11.7% | 1.5% |
| COc1cc(C=C2C(=O)Nc3ccc(S(=O)(=O)N4CCOCC4)cc32)cc(OC)c1OC [10730/F04] | 18.3% | 28.7% |
| CC(=O)n1cc(C=C2C(=O)Nc3ccc(S(=O)(=O)N4CCOCC4)cc32)c2ccccc21 [10730/F05] | 19.6% | 19.5% |
| O=C1Nc2ccc(S(=O)(=O)N3CCOCC3)cc2C1=Cc1coc2ccc(Cl)cc2c1=O [10730/F06] | 21.9% | 3.2% |
| O=C1Nc2ccc(S(=O)(=O)N3CCOCC3)cc2C1=Cc1ccc(-c2ccccc2Cl)o1 [10730/F07] | 67.5% | -2.0% |
| O=C1Nc2ccc(S(=O)(=O)N3CCOCC3)cc2C1=Cc1cc2ccccc2nc1Cl [10730/F08] | 2.1% | -0.3% |
